Measured values taken from ChEMBL document CHEMBL2396635, “Design, synthesis, and DNA binding characteristics of a group of orthogonally positioned diamino, N-formamido, pyrrole- and imidazole-containing polyamides” (Bioorg Med Chem, 2013).
Calls of active or inactive are those of the source. No cut-off for these calls is given here.

What was measured:
[1] = Binding affinity to 5'-CTGCTTC-3' of topoisomerase 2alpha promoter (unknown origin) in Tris buffer at pH 7 at 30 uM by DNA footprinting
[2] = Selectivity for 5'-TACGAT-3' of topoisomerase 2alpha promoter (unknown origin) over 5'-CTGCTTC-3' of topoisomerase 2alpha promoter (unknown origin)
[3] = Binding affinity to 5'-TACGAT-3' of topoisomerase 2alpha promoter (unknown origin) in Tris buffer at pH 7 at 10 uM by DNA footprinting
[4] = Binding affinity to 5'-ATCGAT-3' of hairpin DNA (unknown origin) in cacodylic acid buffer at pH 6.5 at 25 degC by SPR analysis
[5] = system: Nucleic Acid; assay: Binding affinity to 5'-ACGCGT-3' of hairpin DNA (unknown origin) in cacodylic acid buffer at pH 6.5 assessed as change in melting temperature at 3 uM by thermal denaturation assay; type: nucleic-acid assay
[6] = Binding affinity to 5'-ATCGAT-3' DNA (unknown origin) at 80 uM at 25 degC by ITC method
[7] = system: Nucleic Acid; assay: Binding affinity to 5'-ATCGAT-3' of hairpin DNA (unknown origin) in cacodylic acid buffer at pH 6.5 assessed as change in melting temperature at 3 uM by thermal denaturation assay; type: nucleic-acid assay
[8] = system: Nucleic Acid; assay: Binding affinity to 5'-ATGCAT-3' of hairpin DNA (unknown origin) in cacodylic acid buffer at pH 6.5 assessed as change in melting temperature at 3 uM by thermal denaturation assay; type: nucleic-acid assay
[9] = Binding affinity to 5'-ACGCGT-3' of hairpin DNA (unknown origin) in cacodylic acid buffer at pH 6.5 at 25 degC by SPR analysis
[10] = Binding affinity to 5'-ATGCAT-3' of hairpin DNA (unknown origin) in cacodylic acid buffer at pH 6.5 at 25 degC by SPR analysis
[11] = Binding affinity to 5'-ACGCGT-3' of hairpin DNA (unknown origin) in 10 mM phosphate buffer at pH 6.2 at 1 mol equivalent of compound by CD titration method
[12] = Binding affinity to 5'-ACGCGT-3' DNA (unknown origin) at 80 uM at 25 degC by ITC method
[13] = Binding affinity to 5'-ACGCGT-3' of DNA fragment (unknown origin) in Tris buffer at pH 7 at 0.05 uM by DNA footprinting
[14] = system: Nucleic Acid; assay: Binding affinity to 5'-AAATTT-3' of hairpin DNA (unknown origin) in cacodylic acid buffer at pH 6.5 assessed as change in melting temperature at 3 uM by thermal denaturation assay; type: nucleic-acid assay
[15] = Binding affinity to 5'-AAATTT-3' of DNA fragment (unknown origin) in Tris buffer at pH 7 at 20 uM by DNA footprinting
[16] = Binding affinity to 5'-AAATTT-3' of hairpin DNA (unknown origin) in cacodylic acid buffer at pH 6.5 at 25 degC by SPR analysis
[17] = Binding affinity to 5'-AAATTT-3' of DNA fragment (unknown origin) in Tris buffer at pH 7 at 30 uM by DNA footprinting
[18] = Binding affinity to 5'-AAATTT-3' DNA (unknown origin) at 80 uM at 25 degC by ITC method
[19] = Binding affinity to 5'-AAATTT-3' of hairpin DNA (unknown origin) in 10 mM phosphate buffer at pH 6.2 at 1 mol equivalent of compound by CD titration method
[20] = Binding affinity to 5'-ATGCAT-3' DNA (unknown origin) at 80 uM at 25 degC by ITC method
[21] = Binding affinity to 5'-ATGCAT-3' of DNA fragment (unknown origin) in Tris buffer at pH 7 at 1 uM by DNA footprinting
[22] = Binding affinity to 5'-ACGCGT-3' of DNA fragment (unknown origin) in Tris buffer at pH 7 at 1 uM by DNA footprinting
[23] = Binding affinity to 5'-ACTAGT-3' of DNA fragment (unknown origin) in Tris buffer at pH 7 at 1 uM by DNA footprinting
[24] = Binding affinity to 5'-ATGCAT-3' of hairpin DNA (unknown origin) in 10 mM phosphate buffer at pH 6.2 at 1 mol equivalent of compound by CD titration method
[25] = Binding affinity to 5'-ATCGAT-3' of 11 bp hairpin DNA oligonucleotide (unknown origin) in cacodylic acid buffer at pH 6.5 at 25 degC by SPR analysis
[26] = Binding affinity to 5'-ATGCAT-3' of 11 bp hairpin DNA oligonucleotide (unknown origin) in cacodylic acid buffer at pH 6.5 at 25 degC by SPR analysis
[27] = Binding affinity to 5'-ACGCGT-3' of 11 bp hairpin DNA oligonucleotide (unknown origin) in cacodylic acid buffer at pH 6.5 at 25 degC by SPR analysis
[28] = Binding affinity to 5'-AAATTT-3' of 11 bp hairpin DNA oligonucleotide (unknown origin) in cacodylic acid buffer at pH 6.5 at 25 degC by SPR analysis
[29] = Binding affinity to 5'-ATCGAT-3' of hairpin DNA (unknown origin) in 10 mM phosphate buffer at pH 6.2 at 1 mol equivalent of compound by CD titration method

CN(C)CCCNC(=O)c1cc(NC(=O)c2nc(NC(=O)c3cc(NC=O)cn3C)cn2C)cn1C
Activity [1]: Active
Selectivity ratio [2]: 3
Activity [3]: Active
Ke [4]: 2 ×10⁵ /M
ΔTm [5]: 3 °C
Activity [6]: Active
ΔTm [7]: 0 °C

CN(C)CCNC(=O)c1nc(NC(=O)c2cc(NC(=O)c3nc(NC=O)cn3C)cn2CCCN)cn1C
ΔTm [8]: 24 °C
Ke [4]: 1.7 ×10⁶ /M
Ke [9]: 2.4 ×10⁸ /M
ΔTm [5]: > 24 °C
Ke [10]: 3.5 ×10⁷ /M
Activity [11]: Active
Activity [12]: Active
Activity [13]: Active
ΔTm [14]: 10 °C
ΔTm [7]: 11 °C

CN(C)CCCNC(=O)c1cc(NC(=O)c2cc(NC(=O)c3cc(NC=O)cn3C)cn2CCCN)cn1C
Activity [15]: Active
Ke [16]: 4.8 ×10⁷ /M
Activity [17]: Active
ΔTm [5]: 0 °C
Activity [18]: Active
ΔTm [14]: 25 °C
ΔTm [7]: 10 °C
Activity [19]: Active

CN(C)CCCNC(=O)c1cc(NC(=O)c2cc(NC(=O)c3nc(NC=O)cn3C)cn2CCCN)cn1C
Activity [20]: Active
Activity [21]: Active
ΔTm [8]: 26 °C
Ke [4]: 2.7 ×10⁶ /M
Ke [9]: 2.3 ×10⁶ /M
ΔTm [5]: 0 °C
Activity [22]: Active
Ke [10]: 1.3 ×10⁸ /M
Activity [23]: Active
ΔTm [14]: 0 °C
Activity [24]: Active
ΔTm [7]: 7 °C

CN(C)CCCNC(=O)c1cc(NC(=O)c2cc(NC(=O)c3nc(NC=O)cn3C)cn2C)cn1C
Activity [20]: Active
Ke [25]: 9.4 ×10⁴ /M
Ke [26]: 1.2 ×10⁷ /M
ΔTm [8]: 11 °C
ΔTm [5]: 2 °C
Ke [27]: 8.8 ×10⁴ /M
ΔTm [7]: 3 °C

CN(C)CCCNC(=O)c1cc(NC(=O)c2cc(NC(=O)c3cc(NC=O)cn3C)cn2C)cn1C
Activity [15]: Active
Activity [18]: Active
ΔTm [14]: 9 °C
Ke [28]: 3.2 ×10⁶ /M
ΔTm [7]: 1 °C

CN(C)CCNC(=O)c1nc(NC(=O)c2cc(NC(=O)c3nc(NC=O)cn3C)cn2C)cn1C
Ke [25]: 1 ×10⁵ /M
Ke [26]: 1.2 ×10⁷ /M
Ke [16]: 5.3 ×10⁴ /M
ΔTm [8]: 9 °C
Ke [9]: 5.4 ×10⁷ /M
ΔTm [5]: 9 °C
Activity [12]: Active
ΔTm [14]: 1 °C
ΔTm [7]: 1 °C

CN(C)CCCNC(=O)c1cc(NC(=O)c2nc(NC(=O)c3cc(NC=O)cn3CCCN)cn2C)cn1C
Activity [1]: Active
Activity [29]: Active
Selectivity ratio [2]: 3
Activity [3]: Active
Ke [4]: < 1 ×10⁵ /M
ΔTm [5]: 0 °C
Activity [6]: Active
ΔTm [14]: 10 °C
ΔTm [7]: 0 °C
